Like-named read-outs stand apart in the source and are kept apart here. Where a SMILES comes first, the peptide text is derived from it. Bridges are numbered along the chain shown (N, C = ends). Where no end group is shown, it is not given here.
Columns and labels:
[1] = target: T1, Notch2NRR (Notch2 NRR domain) (Homo sapiens, UniProt Q04721); assay: SPR binding of synthetic DCPs to Notch2NRR; settings: Biacore S200, 25°C; synthetic folded peptide, 3-fold dilution from 100 μM; biotinylated NRR on chip SA; steady state fitting
T1 construct: NRR protein (A1423–Q1677, made in-house); His tag (cleaved yes); made in house; host or cells: CHO
T1 sequence (Q04721 1423-1677): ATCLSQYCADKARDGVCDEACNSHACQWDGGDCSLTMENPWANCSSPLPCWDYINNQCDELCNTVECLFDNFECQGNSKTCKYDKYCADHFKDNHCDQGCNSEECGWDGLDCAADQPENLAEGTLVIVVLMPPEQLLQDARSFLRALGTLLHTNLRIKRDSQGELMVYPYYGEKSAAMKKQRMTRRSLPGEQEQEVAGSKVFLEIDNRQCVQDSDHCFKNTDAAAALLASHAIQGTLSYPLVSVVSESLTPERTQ
Procedure: (§1) All binding experiments were performed using a Biacore S200 instrument (GE Healthcare) at 25°C at a flow rate of 50 μL/min. The kinetics and affinity measurements were carried out using either single-cycle or multi-cycle kinetics (SCK or MCK), solvent corrected and referenced by subtracting the signal to the blank flow cell. Binding affinity and kinetic parameters (association and dissociation rate constants, and dissociation equilibrium constant) were calculated with the Biacore S200 Evaluation Software (version 1.1.1, Cytiva) using either a 1:1 binding model or a steady-state equilibrium model (according to the manufacturer’s instructions).
(§2) Biotinylated N2L protein (D219–E418, made in-house) and NRR protein (A1423–Q1677, made in-house) were captured at around 500, 1000 and 1500 RU on Sensor Chip SA (Cytiva).

Notch2NRR = assay: Spot phage ELISA, Notch2NRR; format: binding, human; settings: ratio of signal for target protein over BSA background
[2] = target: T2, Notch2Long (Notch2 EGF6-EGF12) (Homo sapiens, UniProt Q04721); assay: SPR binding of synthetic DCPs to Notch2Long; settings: Biacore S200, 25°C, 50 μL/min; synthetic in vitro folded peptide, 3-fold dilution from 100 μM; biotinylated N2L on chip SA; steady state fitting; at least three independent experiments; n/d = no binding
T2 construct: Biotinylated N2L protein (D219–E418, made in-house); His tag (cleaved yes); made in house; host or cells: CHO
T2 sequence (Q04721 219-418): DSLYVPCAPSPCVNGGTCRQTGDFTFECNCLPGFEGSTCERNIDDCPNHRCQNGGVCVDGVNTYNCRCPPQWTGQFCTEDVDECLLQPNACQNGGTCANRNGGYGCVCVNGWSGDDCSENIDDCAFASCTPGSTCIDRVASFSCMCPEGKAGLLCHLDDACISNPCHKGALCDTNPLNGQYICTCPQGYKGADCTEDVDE
Procedure: as §1, §2

HtrA1 FL = target: T3, HtrA1 FL (Homo sapiens, UniProt Q92743); format: binding; settings: read-out: Kd(μM) SPR
T3 construct: HtrA1 (Q23-P480, 5654, Tni Baculovirus); made in house; host or cells: Trichoplusia ni (Tni) cells, baculovirus
T3 sequence (Q92743 23-480): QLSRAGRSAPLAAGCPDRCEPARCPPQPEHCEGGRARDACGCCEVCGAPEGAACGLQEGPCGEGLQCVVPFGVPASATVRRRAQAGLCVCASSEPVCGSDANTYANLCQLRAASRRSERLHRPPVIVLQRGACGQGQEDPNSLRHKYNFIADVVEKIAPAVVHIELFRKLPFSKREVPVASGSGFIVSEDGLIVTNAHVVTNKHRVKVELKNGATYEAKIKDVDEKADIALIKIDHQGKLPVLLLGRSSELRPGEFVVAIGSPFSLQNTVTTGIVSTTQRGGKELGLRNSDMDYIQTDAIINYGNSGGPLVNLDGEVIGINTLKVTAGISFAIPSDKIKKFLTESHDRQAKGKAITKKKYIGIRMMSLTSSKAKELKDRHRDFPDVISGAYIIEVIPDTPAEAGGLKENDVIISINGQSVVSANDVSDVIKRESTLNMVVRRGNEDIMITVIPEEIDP

HtrA1 = format: binding, human; settings: ratio of signal for target protein over BSA background
BamA-amphipol = assay: Spot phage ELISA, BamA-amphipol; format: binding, bacterial

Work on CC(C)C[C@@H]1NC(=O)[C@@H](NC(=O)[C@H](CC(=O)O)NC(=O)[C@H](Cc2ccccc2)NC(=O)[C@H](C)N)CSSC[C@@H]2NC(=O)[C@H](CCC(N)=O)NC(=O)[C@H](CC(C)C)NC(=O)[C@H](CCCCN)NC(=O)[C@H](Cc3c[nH]cn3)NC(=O)[C@H](Cc3ccccc3)NC(=O)[C@H](CC(=O)O)NC(=O)[C@@H]3CSSC[C@@H](C(=O)N[C@H](C(=O)N[C@@H](CCCNC(=N)N)C(=O)O)[C@@H](C)O)NC(=O)[C@H](CO)NC(=O)[C@H](CO)NC(=O)[C@H](CC(N)=O)NC(=O)[C@H](CSSC[C@H](NC(=O)[C@H](CCC(N)=O)NC(=O)CNC1=O)C(=O)NCC(=O)N[C@@H](CCCNC(=N)N)C(=O)N3)NC(=O)[C@H](Cc1ccc(O)cc1)NC(=O)[C@@H]1CCCN1C(=O)[C@H](CO)NC(=O)[C@H](Cc1c[nH]cn1)NC(=O)[C@H](CCCNC(=N)N)NC(=O)[C@H](CC(N)=O)NC(=O)[C@H](CO)NC(=O)[C@H](Cc1c[nH]c3ccccc13)NC(=O)[C@H](C(C)C)NC2=O [N2N-AVR-n6] (HELM PEPTIDE1{A.F.D.C.L.G.Q.C.G.R.C.D.F.H.K.L.Q.C.V.W.S.N.R.H.S.P.Y.C.N.S.S.C.T.R}$PEPTIDE1,PEPTIDE1,4:R3-18:R3|PEPTIDE1,PEPTIDE1,8:R3-28:R3|PEPTIDE1,PEPTIDE1,11:R3-32:R3$$$V2.0; N-terminus and C-terminus assumed) yielded a Kd [1] of 0.8 µM and a s/n ratio (Notch2NRR) of 39.3.

CC[C@H](C)[C@@H]1NC(=O)[C@@H](NC(=O)CN)CSSC[C@@H]2NC(=O)CNC(=O)[C@H](C)NC(=O)[C@H](CCC(=O)O)NC(=O)[C@@H]3CSSC[C@@H](C(=O)NCC(=O)O)NC(=O)[C@H](CCC(N)=O)NC(=O)[C@H]([C@@H](C)CC)NC(=O)[C@H](Cc4c[nH]c5ccccc45)NC(=O)[C@H]([C@@H](C)CC)NC(=O)[C@H](CCC(=O)O)NC(=O)[C@H](CSSC[C@H](NC(=O)[C@H](Cc4c[nH]c5ccccc45)NC(=O)[C@H](C(C)C)NC(=O)[C@H](Cc4c[nH]cn4)NC(=O)[C@H](CO)NC(=O)[C@H](CCCNC(=N)N)NC1=O)C(=O)N[C@@H](CCCCN)C(=O)N[C@@H](CCC(N)=O)C(=O)N[C@@H](CC(=O)O)C(=O)N[C@@H](CO)C(=O)N[C@@H](CC(=O)O)C(=O)N3)NC(=O)[C@H]([C@@H](C)CC)NC2=O [N2L.EET31.43.43] (HELM PEPTIDE1{G.C.I.R.S.H.V.W.C.K.Q.D.S.D.C.E.A.G.C.I.C.E.I.W.I.Q.C.G}$PEPTIDE1,PEPTIDE1,2:R3-19:R3|PEPTIDE1,PEPTIDE1,9:R3-21:R3|PEPTIDE1,PEPTIDE1,15:R3-27:R3$$$V2.0) gave a Kd [2] of 3.5 µM.

In the case of CC[C@H](C)[C@@H]1NC(=O)[C@H](Cc2ccccc2)NC(=O)[C@H](Cc2ccc(O)cc2)NC(=O)[C@H](C(C)C)NC(=O)[C@H](CCSC)NC(=O)[C@H](C(C)C)NC(=O)[C@@H]2CSSC[C@H](NC(=O)[C@H](CC(=O)O)NC(=O)[C@H](Cc3ccccc3)NC(=O)[C@H](C)N)C(=O)N[C@@H](CC(C)C)C(=O)NCC(=O)N[C@@H](CCC(N)=O)C(=O)N[C@H]3CSSC[C@H](NC(=O)[C@H](Cc4ccc(O)cc4)NC(=O)[C@@H]4CCCN4C(=O)[C@H](CCCCN)NC(=O)[C@H]([C@@H](C)O)NC(=O)[C@H](CCSC)NC(=O)[C@H](Cc4c[nH]cn4)NC1=O)C(=O)N[C@@H](CC(N)=O)C(=O)N[C@@H](CO)C(=O)N[C@@H](CO)C(=O)N[C@H](C(=O)N[C@H](C(=O)N[C@@H](CCCNC(=N)N)C(=O)O)[C@@H](C)O)CSSC[C@H](NC(=O)[C@H](CCCNC(=N)N)NC(=O)CNC3=O)C(=O)N[C@@H](CC(=O)O)C(=O)N[C@@H](Cc1ccccc1)C(=O)N[C@@H](Cc1c[nH]cn1)C(=O)N[C@@H](CCCCN)C(=O)N[C@@H](CC(C)C)C(=O)N[C@@H](CCC(N)=O)C(=O)N2 [HtrA1_AVR61] (HELM PEPTIDE1{A.F.D.C.L.G.Q.C.G.R.C.D.F.H.K.L.Q.C.V.M.V.Y.F.I.H.M.T.K.P.Y.C.N.S.S.C.T.R}$PEPTIDE1,PEPTIDE1,4:R3-18:R3|PEPTIDE1,PEPTIDE1,8:R3-31:R3|PEPTIDE1,PEPTIDE1,11:R3-35:R3$$$V2.0; N-terminus and C-terminus assumed), the Kd (HtrA1 FL; Biacore S200, 25°C, biotinylated HtrA1 FL on chip SA, 10 mM HEPES (8.0), 200mM NaCl, 0.25% CHAPS, 5% DMSO, steady state fitting, n/d = no binding) is reported as > 20 µM and the S/N (HtrA1) is reported as 24.4.

In the case of CC[C@H](C)[C@@H]1NC(=O)[C@@H](NC(=O)CN)CSSC[C@@H]2NC(=O)CNC(=O)[C@H](C)NC(=O)[C@H](CCC(=O)O)NC(=O)[C@@H]3CSSC[C@@H](C(=O)NCC(=O)O)NC(=O)[C@H](CCC(N)=O)NC(=O)[C@H]([C@@H](C)CC)NC(=O)[C@H](Cc4c[nH]c5ccccc45)NC(=O)[C@H](C(C)C)NC(=O)[C@H](CCC(=O)O)NC(=O)[C@H](CSSC[C@H](NC(=O)[C@H](Cc4c[nH]c5ccccc45)NC(=O)[C@H](CC(C)C)NC(=O)[C@H](Cc4c[nH]cn4)NC(=O)[C@H](CO)NC(=O)[C@H](CCCCN)NC1=O)C(=O)N1CCC[C@H]1C(=O)N[C@@H](CCCCN)C(=O)N[C@@H]([C@@H](C)O)C(=O)N[C@@H](CO)C(=O)N[C@@H](CC(=O)O)C(=O)N3)NC(=O)[C@H]([C@@H](C)CC)NC2=O [N2L.EET31.43.24] (HELM PEPTIDE1{G.C.I.K.S.H.L.W.C.P.K.T.S.D.C.E.A.G.C.I.C.E.V.W.I.Q.C.G}$PEPTIDE1,PEPTIDE1,2:R3-19:R3|PEPTIDE1,PEPTIDE1,9:R3-21:R3|PEPTIDE1,PEPTIDE1,15:R3-27:R3$$$V2.0), the Kd [2] is reported as 3.5 µM.

Work on “GPTQSFWGWCGGIGYVGGRYCSGTTCQRPDAHWSQCLPGAS (disulfide 10-26, 21-36 (inferred)) [HtrA1_CBDamy86]” yielded a Kd (HtrA1 FL) of 158 µM and a S/N (HtrA1) of 22.8.

For “GCTMWQRLQAKYCKQDSDCLAGCVCHAREKCG (also: bicyclic or more (positions not given here)) [BamA-amphipol EET I-II 1]”, the S/N (BamA-amphipol; ratio of signal for target protein over BSA background) was 8.1 and the ELISA (BamA-amphipol; spot phage ELISA signal, DCP displayed on M13 p8) was 1.50.

In the case of CC(C)C[C@@H]1NC(=O)[C@@H](NC(=O)[C@H](CC(=O)O)NC(=O)[C@H](Cc2ccccc2)NC(=O)[C@H](C)N)CSSC[C@@H]2NC(=O)[C@H](CCC(N)=O)NC(=O)[C@H](CC(C)C)NC(=O)[C@H](CCCCN)NC(=O)[C@H](Cc3c[nH]cn3)NC(=O)[C@H](Cc3ccccc3)NC(=O)[C@H](CC(=O)O)NC(=O)[C@@H]3CSSC[C@@H](C(=O)N[C@H](C(=O)N[C@@H](CCCNC(=N)N)C(=O)O)[C@@H](C)O)NC(=O)[C@H](CO)NC(=O)[C@H](CO)NC(=O)[C@H](CC(N)=O)NC(=O)[C@H](CSSC[C@H](NC(=O)[C@H](CCC(N)=O)NC(=O)CNC1=O)C(=O)NCC(=O)N[C@@H](CCCNC(=N)N)C(=O)N3)NC(=O)[C@H](Cc1ccc(O)cc1)NC(=O)[C@H](CCC(N)=O)NC(=O)[C@H](CCCCN)NC(=O)[C@H](Cc1ccc(O)cc1)NC(=O)[C@H]([C@@H](C)O)NC(=O)[C@H](Cc1c[nH]c3ccccc13)NC(=O)[C@H](CO)NC(=O)[C@H](Cc1ccc(O)cc1)NC(=O)[C@@H]1CCCN1C(=O)[C@H](C(C)C)NC2=O [N2N-AVR-19] (HELM PEPTIDE1{A.F.D.C.L.G.Q.C.G.R.C.D.F.H.K.L.Q.C.V.P.Y.S.W.T.Y.K.Q.Y.C.N.S.S.C.T.R}$PEPTIDE1,PEPTIDE1,4:R3-18:R3|PEPTIDE1,PEPTIDE1,8:R3-29:R3|PEPTIDE1,PEPTIDE1,11:R3-33:R3$$$V2.0; N-terminus and C-terminus assumed), the Kd [1] is reported as 9.4 µM and the s/n ratio (Notch2NRR) is reported as 35.7.

Source: publication PMC10977697 (PLOS ONE, 2024)
